From a melting point compilation (Tetko et al.; mined from patent text by program, amines drawn as free bases though some values may be those of a salt) come the findings set out here.

The molecule `COc1cccc(Oc2ncccc2C#N)c1` displayed a melting point of 66 to 68 °C.
`Clc1ccc2c(c1)CCc1cccnc1C2=C1CCN(Cc2cccnc2)CC1` gave a melting point of 115 °C.
The molecule `CCC1c2cc(OC)c(OC)cc2C(C=Cc2ccc(N)cc2)=NN(C(C)=O)C1C` (configuration not stated) yielded a melting point of 104 to 106 °C.
In turn, `Cc1cccc(NC(=O)NCC(=O)N(CC(=O)N(C)c2cccc(C)c2)c2ccccc2)c1` came in with a melting point of 165 °C.
The molecule `O=C(CCC#Cc1ccccn1)Nc1cccc(Cl)c1` showed a melting point of 168 to 169 °C.
In turn, `C[C@H]1[C@H](NC(=O)OC(C)(C)C)C(=O)N1OCc1ccccc1` yielded a melting point of 78 °C.
`CC(=O)c1coc2cc(NS(C)(=O)=O)c(Oc3ccccc3)cc2c1=O`: the melting point was in the range of 175 to 177 °C.
In the case of `Cc1ccc(C(C)(C)C)cc1S(=O)(=O)Cl`, the melting point fell in the range of 137 to 138 °C.
Take `COCC(=O)N(c1c(C)cccc1C)C(CCO)C(=O)O` (configuration not stated): the melting point fell in the range of 150 to 152 °C.
Molecule `COC(=O)c1nc2cc(Cl)c(Cl)c(Cl)c2c(O)c1C(=O)OC` came in with a melting point of 227 to 228 °C.
With `Cc1cc(N2CCC3(CC2)OCCO3)c2cccc(Br)c2n1`, the melting point is 156 to 158 °C.
Molecule `O=C(O)C1CCc2c(c3cc(OCc4ccccc4)ccc3n2C(=O)c2ccccc2)C1` (configuration not stated) returned a melting point of 193 to 194 °C.
For `Cc1ccc(C)c2c1CN(NC(=S)NC(=O)c1ccccc1)C2` the value was 163 to 164 °C; for `C[C@@H](n1cnc2cc(-c3ccc(C(=N)NC#N)cc3)sc2c1=O)[C@](O)(Cn1cncn1)c1ccc(F)cc1F`, 275 to 278 °C.
For `CC(C)c1ccc(-c2nsc(-c3cccc(C(=O)O)c3)n2)cc1` the value was 166 to 168 °C; for `O=C(Cc1ccc(C(F)(F)F)cc1)NCc1ccc2c(c1)CN(C1CCC(=O)NC1=O)C2=O` (configuration not stated), 217 to 219 °C.
As for `Cc1cc(C(N)=O)ncc1C(c1c(F)ccc(F)c1F)S(=O)(=O)CCC(C)(F)F` (configuration not stated), the melting point was in the range of 165 to 166 °C.
`Cc1cccc(NC(=O)CN2c3ccc(Cl)c(Cl)c3[C@@H]3CCN(C(=O)OC(C)(C)C)CC[C@@H]32)c1C` (relative stereo) yielded a melting point of 146 °C.
In turn, `CC(C)(C)COc1ccc(C2=CC=CN3CCS(=O)(=O)N=C23)cc1` had a melting point of 258 to 259 °C.
`Cc1coc(C)c1-c1nc2cc(Cl)cc(CCc3ccccn3)c2o1` returned a melting point of 73 to 76 °C.
For `CC(C)Cc1ccc(C(=O)O)cc1C#N` the value was 118 °C; for `CCCCOc1c(C(=O)O)n(CC(C)(C)C)c(=O)c2cc(F)ccc12`, 184 to 185 °C; for `Cn1ccc(CON2C(=O)c3ccccc3C2=O)n1`, 122 to 124 °C.
As to `N#Cc1cccc(C2=Nc3cc(CO)c(-c4ccccc4F)cc3NC(=O)C2)c1`, the melting point lay within 90 to 91 °C.
In the case of `O=C(O)c1cn(C2CC2)c2cc(N3CCNC(c4ccoc4)C3)c(F)cc2c1=O` (configuration not stated), the melting point was in the range of 202 to 204 °C.
With `O=C1CCC(N2Cc3c(OCc4cc(CN5CCOCC5)no4)cccc3C2=O)C(=O)N1` (configuration not stated), the melting point was 228 to 230 °C.
Molecule `COC(=O)CCC(=NOCc1ccc(OCc2nc(-c3ccco3)oc2C)c(OC)c1)c1ccccc1` had a melting point of 67 to 69 °C.
The molecule `CCNC(=S)NC1=Nc2ccccc2CS1` registered a melting point of 191 to 196 °C.
Then `Cn1cc(-c2cc3cccnc3[nH]2)c2ccc(C(=O)NCCO)cc21`, with 264 to 267 °C; and `CNC(=O)c1cc(C#N)cc(Cl)c1NC(=O)c1cc(Cl)nn1-c1ncccc1Cl`, with 197 to 200 °C; and `O=C(NCC(c1ccccc1)c1ccccc1)C1Cc2ccccc2N1S(=O)(=O)c1ccc(-c2ccc(F)cc2)cc1` (configuration not stated), with 80 to 82 °C.
Then `Cc1ccc(Cl)c(C)c1Nn1cc(C#N)c(=O)[nH]c1=O`, with above 320 °C; and `Nc1c(-c2cc(Cl)ccc2O)c2cc(Cl)c(C(F)(F)F)cc2[nH]c1=O`, with 245 to 246 °C.
Molecule `CC(=O)N[C@@H](CSC(=O)c1ccccc1)C(=O)NCCSC(=O)C(C)C` showed a melting point of 137 to 138 °C.
In the case of `O=C(Nc1ccc(-n2nc(C(F)(F)F)cc2C(F)(F)F)cc1)c1cccc(F)c1`, the melting point was 148 to 151 °C.
Molecule `COC(=O)c1cccc([N+](=O)[O-])c1NC(=O)OC(C)(C)C` yielded a melting point of 92 to 94 °C.
Regarding `CC(C)n1c(-c2ccccc2)nc(-c2ccc(F)cc2)c1CO`, the melting point fell in the range of 190 to 193 °C.
Then `Nc1nonc1-c1nc2ccccc2n1COc1ccccc1`, with 171 to 173 °C.
On to `COc1ccc(S(=O)(=O)NCc2ccc(O)cc2)cc1`, for which the melting point is 161 to 162 °C.
The molecule `O=C(O)C1Cc2ccccc2N1S(=O)(=O)c1ccc(-c2cccc(Cl)c2)cc1` (configuration not stated) returned a melting point of 78 °C.
As for `COC(=O)c1cn(Cc2ccccc2F)cn1`, the melting point was 87 to 89 °C.
Molecule `O=C(Nc1ccc(OS(=O)(=O)c2cccc(C(F)(F)F)c2)cc1[N+](=O)[O-])NS(=O)(=O)Cl` had a melting point of 152 °C.
Molecule `Cc1nc2cc(C(F)(F)F)ccc2n1N` came in with a melting point of 190 to 192 °C.
In turn, `COC(=O)CC(O)CP(=O)(C#Cc1c(-c2ccc(F)cc2)c2n(c1C(C)C)CCCC2)OC` (configuration not stated) displayed a melting point of 145 to 146 °C.
`O=C1N=c2ccc(OCCBr)cc2=N1` displayed a melting point of 225 to 226 °C.
`CC(C)(CC(=O)O)C(Cl)CC(Cl)(Cl)C(F)(F)F` (configuration not stated) yielded a melting point of 61 °C.
The molecule `CCOC(=O)C(=O)Nc1cccc(N(C)C)c1C(N)=O` had a melting point of 133 to 135 °C.
As for `CS(=O)(=O)c1ccc(Oc2cc(OCc3ccccc3)c3[nH]c(C(N)=O)cc3c2)cc1`, the melting point was 251 to 252 °C.
The molecule `CN(C)CCCNc1ccc(NCCCN(C)C)c2c1C(=O)c1c(O)ccc(O)c1C2=O` returned a melting point of 154 to 157 °C.
`CON1C=C(C)N=C(NC(=O)NS(=O)(=O)c2ccccc2C=CC(F)(F)F)N1` came in with a melting point of 159 to 160 °C.
In turn, `N#Cc1c(N2CCN(C(=O)c3cccs3)CC2)c2ccccc2n(-c2ccccc2)c1=O` returned a melting point of 289 °C.
`Nc1nc(-c2cccc(F)c2)nc2nc(-c3ccco3)nn12` returned a melting point above 300 °C.
`CNC(=O)C(Cc1ccc(OC)cc1)NC(=O)C(CC(C)C)C(S)CC(=O)NCC(=O)OC(C)(C)C` (configuration not stated): the melting point was in the range of 223 to 226 °C.
Regarding `CCN1C(=O)CC2(CNC(=O)C2)C1=O` (configuration not stated), the melting point lay in the range of 168 to 169 °C.
On to `O=C(O)c1ccc2c(=O)c3cc(C(=O)O)ccc3oc2c1`, for which the melting point is above 400 °C.
With `CC(Cc1ccc(Oc2cc(N3CCN(Cc4ccccc4)CC3)nc(Oc3ccccc3)n2)cc1)(Oc1ccccc1)C(=O)O` (configuration not stated), the melting point is 126 to 128 °C.
Molecule `COCn1ncc2cc(C(=O)NN)ccc21` yielded a melting point of 141 to 142 °C.
In the case of `COc1ccc(C2(c3ccc(N(C)C)cc3N(C)C)OC(=O)c3cc(N(C)C)ccc32)cc1` (configuration not stated), the melting point was in the range of 90 to 94 °C.
Then `OCCN1CCN(CC2CNCCO2)CC1` (configuration not stated), with 73 to 75.5 °C; and `CC(C)CC1C(OC2CCCCO2)CC(=O)N1C(=O)OC(C)(C)C` (configuration not stated), with 81 to 83 °C; and `CCCCc1nc2ccccn2c(=O)c1-c1ccc(Cl)c(C)c1`, with 122 to 124 °C.
As for `Cc1ccc(C2(CNC(=O)Nc3c(C(C)C)cccc3C(C)C)CCC2)cc1`, the melting point was 166 to 168 °C.
